Data on 13 compounds can be found in ChEMBL document CHEMBL4665659, “Utilizing comprehensive and mini-kinome panels to optimize the selectivity of quinoline inhibitors for cyclin G associated kinase (GAK)” (Bioorg Med Chem Lett, 2019).

The target of assay [1] is T1, Cyclin-G-associated kinase (Homo sapiens, UniProt O14976).
T1 sequence (O14976 whole entry): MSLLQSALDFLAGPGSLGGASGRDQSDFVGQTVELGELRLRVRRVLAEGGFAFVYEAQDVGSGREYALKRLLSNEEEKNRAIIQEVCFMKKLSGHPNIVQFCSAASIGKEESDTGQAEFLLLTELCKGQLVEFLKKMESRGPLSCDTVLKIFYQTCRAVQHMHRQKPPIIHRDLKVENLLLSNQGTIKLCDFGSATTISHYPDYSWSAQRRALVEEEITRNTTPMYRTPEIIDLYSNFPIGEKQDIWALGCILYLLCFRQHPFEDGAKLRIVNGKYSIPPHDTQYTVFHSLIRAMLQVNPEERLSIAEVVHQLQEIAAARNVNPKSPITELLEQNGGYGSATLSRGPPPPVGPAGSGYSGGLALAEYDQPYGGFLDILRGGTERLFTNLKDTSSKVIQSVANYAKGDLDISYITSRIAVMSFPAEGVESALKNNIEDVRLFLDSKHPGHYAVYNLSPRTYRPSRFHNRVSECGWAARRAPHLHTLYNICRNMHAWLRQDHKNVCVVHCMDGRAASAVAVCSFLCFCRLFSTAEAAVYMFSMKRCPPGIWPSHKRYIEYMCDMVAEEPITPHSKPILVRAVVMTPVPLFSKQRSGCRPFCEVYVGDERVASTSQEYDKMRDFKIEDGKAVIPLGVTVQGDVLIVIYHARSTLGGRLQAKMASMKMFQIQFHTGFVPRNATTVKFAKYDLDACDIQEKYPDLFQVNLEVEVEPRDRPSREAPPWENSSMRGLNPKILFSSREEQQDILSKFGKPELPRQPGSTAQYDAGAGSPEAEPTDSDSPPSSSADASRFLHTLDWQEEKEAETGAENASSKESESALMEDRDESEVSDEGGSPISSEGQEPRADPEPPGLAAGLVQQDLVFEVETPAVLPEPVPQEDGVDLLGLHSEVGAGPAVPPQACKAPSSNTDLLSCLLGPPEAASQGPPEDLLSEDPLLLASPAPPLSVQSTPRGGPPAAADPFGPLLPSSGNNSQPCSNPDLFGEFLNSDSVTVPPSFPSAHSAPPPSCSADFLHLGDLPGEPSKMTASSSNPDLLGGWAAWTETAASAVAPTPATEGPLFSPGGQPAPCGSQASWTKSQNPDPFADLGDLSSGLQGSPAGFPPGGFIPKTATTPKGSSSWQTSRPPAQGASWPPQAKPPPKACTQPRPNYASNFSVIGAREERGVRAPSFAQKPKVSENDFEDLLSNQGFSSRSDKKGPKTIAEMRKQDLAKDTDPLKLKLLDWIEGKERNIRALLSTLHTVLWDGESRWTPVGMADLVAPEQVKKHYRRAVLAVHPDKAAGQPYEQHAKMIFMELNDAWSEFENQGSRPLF
In words: Binding affinity to human wild type partial length GAK (G13 to Y338 residues) expressed in bacterial expression system by KinomeScan method.

The target of assay [2] is RAF proto-oncogene serine/threonine-protein kinase (Homo sapiens) (UniProt P04049). The experiment in a line: Inhibition of human wild type partial length C-Raf (I330 to T640 residues) expressed in bacterial expression system at 1 uM by Kinomescan method relative to control.
Assay [3] has as its target T1, Cyclin-G-associated kinase. The experiment in a line: Inhibition of GAK (unknown origin) by in-cell pulse based assay.
For a further assay, the target named is T2, Ephrin type-B receptor 6 (Homo sapiens, UniProt O15197).
T2 sequence (O15197 whole entry): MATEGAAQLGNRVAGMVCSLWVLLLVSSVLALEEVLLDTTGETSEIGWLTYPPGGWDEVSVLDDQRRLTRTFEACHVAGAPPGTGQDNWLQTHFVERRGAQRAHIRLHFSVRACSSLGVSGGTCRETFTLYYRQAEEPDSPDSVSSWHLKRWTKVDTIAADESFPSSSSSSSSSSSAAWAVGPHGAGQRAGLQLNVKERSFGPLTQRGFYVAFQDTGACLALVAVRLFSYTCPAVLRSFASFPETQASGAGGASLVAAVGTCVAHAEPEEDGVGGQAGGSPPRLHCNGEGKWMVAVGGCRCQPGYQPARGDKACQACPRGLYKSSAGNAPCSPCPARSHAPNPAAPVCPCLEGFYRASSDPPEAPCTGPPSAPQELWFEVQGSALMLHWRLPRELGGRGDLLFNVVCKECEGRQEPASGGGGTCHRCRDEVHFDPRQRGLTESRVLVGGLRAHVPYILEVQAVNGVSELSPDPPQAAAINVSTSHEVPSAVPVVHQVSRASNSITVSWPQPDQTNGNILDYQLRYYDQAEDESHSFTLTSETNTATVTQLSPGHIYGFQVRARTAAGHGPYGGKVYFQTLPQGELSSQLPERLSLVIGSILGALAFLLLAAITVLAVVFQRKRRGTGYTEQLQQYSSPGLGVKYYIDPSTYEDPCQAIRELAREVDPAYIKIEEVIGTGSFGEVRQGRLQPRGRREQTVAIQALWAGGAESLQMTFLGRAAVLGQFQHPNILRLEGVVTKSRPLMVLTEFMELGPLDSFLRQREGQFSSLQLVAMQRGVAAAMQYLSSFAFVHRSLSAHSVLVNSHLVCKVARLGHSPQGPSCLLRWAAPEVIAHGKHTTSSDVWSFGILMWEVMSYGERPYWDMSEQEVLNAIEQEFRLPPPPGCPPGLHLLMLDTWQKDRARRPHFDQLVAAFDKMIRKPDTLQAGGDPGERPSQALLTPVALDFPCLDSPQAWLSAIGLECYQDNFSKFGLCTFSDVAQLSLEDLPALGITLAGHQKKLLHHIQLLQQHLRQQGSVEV
The experiment in a line: Binding affinity to human wild type partial length EphB6 (Q634 to P948 residues) expressed in mammalian expression system by Kinomescan method.

The target in the next assay is Activin receptor type-1 (Homo sapiens, UniProt Q04771). The experiment in a line: Binding affinity to human wild type partial length ACVR1 (C188 to C509 residues) expressed in bacterial expression system by Kinomescan method.
The target of assay [4] is Receptor-interacting serine/threonine-protein kinase 2 (Homo sapiens, UniProt O43353). The experiment in a line: Binding affinity to wild-type human partial length RIPK2 (M1 to K310 residues) expressed in bacterial expression system by Kinomescan method.
The target of assay [5] is Tyrosine-protein kinase Lck (Homo sapiens, UniProt P06239). The experiment in a line: Binding affinity to wild-type human partial length LCK (R207 to P509 residues) expressed in bacterial expression system by Kinomescan method.
The target in assay [6] is Bone morphogenetic protein receptor type-1B (Homo sapiens, UniProt O00238). The experiment in a line: Binding affinity to human wild type partial length BMPR1B (D178 to L502 residues) expressed in mammalian expression system by Kinomescan method.
The target in the next assay is Ephrin type-A receptor 8 (Homo sapiens, UniProt P29322). The experiment in a line: Binding affinity to human wild type partial length EphA8 (Q608 to C920 residues) expressed in bacterial expression system by Kinomescan method.
For another assay, the target named is Ephrin type-A receptor 1 (Homo sapiens, UniProt P21709). The experiment in a line: Binding affinity to human wild type partial length EphA1 (V588 to I913 residues) expressed in bacterial expression system by Kinomescan method.
Assay [7] addresses T3, Tyrosine-protein kinase ABL1 (Homo sapiens, UniProt P00519). The experiment in a line: Binding affinity to human wild type partial length non-phosphorylated ABL1 (S229 to K512 residues) expressed in mammalian expression system by Kinomescan method.
Assay [8] deals with T3, Tyrosine-protein kinase ABL1. The experiment in a line: Binding affinity to human wild type partial length phosphorylated ABL1 (S229 to K512 residues) expressed in mammalian expression system by Kinomescan method.
Assay [9] has as its target Dual specificity mitogen-activated protein kinase kinase 5 (Homo sapiens, UniProt Q13163). The experiment in a line: Binding affinity to human wild type partial length MEK5 (L98 to P448 residues) expressed in mammalian expression system by Kinomescan method.
Assay [10] addresses Serine/threonine-protein kinase NLK (Homo sapiens, UniProt Q9UBE8). In words: Binding affinity to wild-type human full length NLK expressed in bacterial expression system by Kinomescan method.
Assay [11] concerns the target Tyrosine-protein kinase TXK (Homo sapiens, UniProt P42681). In words: Binding affinity to wild-type human partial length TXK (L238 to W527 residues) expressed in bacterial expression system by Kinomescan method.
For assay [12], the target named is Atypical kinase COQ8A, mitochondrial (Homo sapiens, UniProt Q8NI60). In words: Binding affinity to human wild type full-length ADCK3 expressed in bacterial expression system by Kinomescan method.
The target of assay [13] is Interleukin-1 receptor-associated kinase 3 (Homo sapiens, UniProt Q9Y616). In words: Binding affinity to human wild type partial length IRAK3 (V147 to E596 residues) expressed in bacterial expression system by Kinomescan method.

Molecules are shown by their SMILES. A value given as a limit tells only on which side of the number the result lay.

In general, Kd refers to the equilibrium constant for the complex coming apart. What is called inhibition is the drop in the measured response relative to a control, in per cent. The term IC50 denotes the concentration that gives 50% inhibition. A higher IC50 goes with lower potency.

T3 sequence (P00519 whole entry, the tested form may be a part): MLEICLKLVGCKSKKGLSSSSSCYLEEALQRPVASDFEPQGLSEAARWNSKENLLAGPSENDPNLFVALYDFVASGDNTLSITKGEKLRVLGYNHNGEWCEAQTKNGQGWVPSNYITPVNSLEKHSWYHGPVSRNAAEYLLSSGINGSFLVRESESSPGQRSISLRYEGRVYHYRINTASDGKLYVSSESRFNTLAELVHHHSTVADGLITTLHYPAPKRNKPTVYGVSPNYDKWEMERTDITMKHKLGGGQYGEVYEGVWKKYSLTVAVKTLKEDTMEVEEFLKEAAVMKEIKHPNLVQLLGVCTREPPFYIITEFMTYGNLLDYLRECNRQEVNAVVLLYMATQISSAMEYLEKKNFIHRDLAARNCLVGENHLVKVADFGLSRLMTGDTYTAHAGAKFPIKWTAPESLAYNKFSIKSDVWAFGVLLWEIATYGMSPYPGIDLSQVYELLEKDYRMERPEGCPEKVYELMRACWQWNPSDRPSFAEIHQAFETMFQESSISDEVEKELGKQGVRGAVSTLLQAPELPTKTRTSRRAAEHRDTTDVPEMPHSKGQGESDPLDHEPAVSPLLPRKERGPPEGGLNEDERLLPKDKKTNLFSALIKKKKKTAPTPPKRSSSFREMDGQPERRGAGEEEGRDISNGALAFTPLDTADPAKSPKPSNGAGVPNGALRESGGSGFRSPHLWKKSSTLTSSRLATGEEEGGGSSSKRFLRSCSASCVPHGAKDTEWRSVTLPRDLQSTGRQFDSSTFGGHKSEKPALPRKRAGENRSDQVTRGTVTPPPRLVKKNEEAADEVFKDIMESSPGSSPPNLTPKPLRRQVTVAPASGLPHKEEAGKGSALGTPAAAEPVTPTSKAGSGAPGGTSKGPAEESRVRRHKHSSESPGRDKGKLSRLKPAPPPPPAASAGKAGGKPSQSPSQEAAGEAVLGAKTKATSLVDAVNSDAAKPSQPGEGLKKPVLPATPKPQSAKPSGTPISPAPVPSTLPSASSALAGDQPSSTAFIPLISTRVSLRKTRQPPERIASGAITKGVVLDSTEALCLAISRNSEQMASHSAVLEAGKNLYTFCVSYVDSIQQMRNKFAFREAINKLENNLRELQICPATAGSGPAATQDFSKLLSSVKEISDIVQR
Sequence of Ephrin type-A receptor 8 (P29322 whole entry, the tested form may be a part): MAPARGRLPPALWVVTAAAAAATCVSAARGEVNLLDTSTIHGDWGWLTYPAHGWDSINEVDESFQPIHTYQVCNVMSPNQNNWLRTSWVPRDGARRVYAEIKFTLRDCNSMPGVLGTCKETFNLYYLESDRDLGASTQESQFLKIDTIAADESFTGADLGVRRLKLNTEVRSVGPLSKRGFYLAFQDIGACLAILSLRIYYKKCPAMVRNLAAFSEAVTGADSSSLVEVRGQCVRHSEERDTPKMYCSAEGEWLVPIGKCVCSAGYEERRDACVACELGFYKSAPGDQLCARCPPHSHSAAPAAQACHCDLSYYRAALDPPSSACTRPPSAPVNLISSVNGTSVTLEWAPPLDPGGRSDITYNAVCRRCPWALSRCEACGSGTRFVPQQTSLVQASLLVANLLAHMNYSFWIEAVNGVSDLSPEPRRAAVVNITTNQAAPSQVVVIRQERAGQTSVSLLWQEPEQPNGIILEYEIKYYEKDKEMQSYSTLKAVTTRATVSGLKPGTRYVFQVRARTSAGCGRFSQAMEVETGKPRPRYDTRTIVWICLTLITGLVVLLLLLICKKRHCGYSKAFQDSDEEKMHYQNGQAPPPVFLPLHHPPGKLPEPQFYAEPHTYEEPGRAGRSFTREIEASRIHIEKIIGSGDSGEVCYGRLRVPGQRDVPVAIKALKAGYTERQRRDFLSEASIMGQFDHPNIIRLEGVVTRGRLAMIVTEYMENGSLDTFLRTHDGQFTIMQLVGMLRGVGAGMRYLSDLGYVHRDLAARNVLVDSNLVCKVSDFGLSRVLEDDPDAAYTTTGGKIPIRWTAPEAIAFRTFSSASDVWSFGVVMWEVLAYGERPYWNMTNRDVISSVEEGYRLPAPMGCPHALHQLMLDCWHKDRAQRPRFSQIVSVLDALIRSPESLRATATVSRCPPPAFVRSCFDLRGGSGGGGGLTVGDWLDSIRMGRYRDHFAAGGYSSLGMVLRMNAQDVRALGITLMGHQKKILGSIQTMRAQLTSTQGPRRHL
Sequence of Activin receptor type-1 (Q04771 whole entry, the tested form may be a part): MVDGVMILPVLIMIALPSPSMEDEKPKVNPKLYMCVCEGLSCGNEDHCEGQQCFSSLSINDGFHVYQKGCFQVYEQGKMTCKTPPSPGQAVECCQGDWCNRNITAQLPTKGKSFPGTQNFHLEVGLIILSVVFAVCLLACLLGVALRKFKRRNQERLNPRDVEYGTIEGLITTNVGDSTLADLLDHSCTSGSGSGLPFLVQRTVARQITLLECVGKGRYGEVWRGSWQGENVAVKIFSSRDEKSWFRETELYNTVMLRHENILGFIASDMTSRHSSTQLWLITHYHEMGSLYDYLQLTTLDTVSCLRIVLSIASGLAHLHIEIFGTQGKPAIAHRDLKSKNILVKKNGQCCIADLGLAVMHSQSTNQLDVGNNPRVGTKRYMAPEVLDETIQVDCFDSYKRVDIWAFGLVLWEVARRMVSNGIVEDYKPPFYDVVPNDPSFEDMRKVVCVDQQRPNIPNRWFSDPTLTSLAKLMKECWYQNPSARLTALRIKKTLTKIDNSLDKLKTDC
Sequence of Ephrin type-A receptor 1 (P21709 whole entry, the tested form may be a part): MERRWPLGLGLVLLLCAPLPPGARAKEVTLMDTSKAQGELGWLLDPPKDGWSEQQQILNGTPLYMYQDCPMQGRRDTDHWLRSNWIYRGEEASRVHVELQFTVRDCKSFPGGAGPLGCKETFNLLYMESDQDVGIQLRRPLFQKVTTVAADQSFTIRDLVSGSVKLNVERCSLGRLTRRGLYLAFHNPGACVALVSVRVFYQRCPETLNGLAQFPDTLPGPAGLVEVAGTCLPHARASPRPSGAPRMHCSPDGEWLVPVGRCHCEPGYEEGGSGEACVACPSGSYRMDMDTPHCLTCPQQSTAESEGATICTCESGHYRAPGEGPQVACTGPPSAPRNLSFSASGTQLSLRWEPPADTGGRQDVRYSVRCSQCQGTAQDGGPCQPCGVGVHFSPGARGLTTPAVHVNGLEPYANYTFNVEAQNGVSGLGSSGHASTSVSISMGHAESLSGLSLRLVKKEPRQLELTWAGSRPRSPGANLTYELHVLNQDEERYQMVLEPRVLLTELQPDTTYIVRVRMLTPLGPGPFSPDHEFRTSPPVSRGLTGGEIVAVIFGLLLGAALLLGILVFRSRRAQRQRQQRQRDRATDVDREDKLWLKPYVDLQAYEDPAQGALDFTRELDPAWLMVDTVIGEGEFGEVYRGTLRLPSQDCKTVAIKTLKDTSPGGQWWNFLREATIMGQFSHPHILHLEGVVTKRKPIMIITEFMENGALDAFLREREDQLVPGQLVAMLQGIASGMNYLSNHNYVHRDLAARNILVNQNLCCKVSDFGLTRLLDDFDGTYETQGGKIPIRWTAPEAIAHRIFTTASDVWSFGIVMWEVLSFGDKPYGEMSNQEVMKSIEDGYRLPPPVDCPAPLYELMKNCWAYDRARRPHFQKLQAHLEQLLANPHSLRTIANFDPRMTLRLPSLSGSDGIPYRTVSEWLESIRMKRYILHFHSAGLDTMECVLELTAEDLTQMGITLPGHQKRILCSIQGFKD
Sequence of Tyrosine-protein kinase Lck (P06239 whole entry, the tested form may be a part): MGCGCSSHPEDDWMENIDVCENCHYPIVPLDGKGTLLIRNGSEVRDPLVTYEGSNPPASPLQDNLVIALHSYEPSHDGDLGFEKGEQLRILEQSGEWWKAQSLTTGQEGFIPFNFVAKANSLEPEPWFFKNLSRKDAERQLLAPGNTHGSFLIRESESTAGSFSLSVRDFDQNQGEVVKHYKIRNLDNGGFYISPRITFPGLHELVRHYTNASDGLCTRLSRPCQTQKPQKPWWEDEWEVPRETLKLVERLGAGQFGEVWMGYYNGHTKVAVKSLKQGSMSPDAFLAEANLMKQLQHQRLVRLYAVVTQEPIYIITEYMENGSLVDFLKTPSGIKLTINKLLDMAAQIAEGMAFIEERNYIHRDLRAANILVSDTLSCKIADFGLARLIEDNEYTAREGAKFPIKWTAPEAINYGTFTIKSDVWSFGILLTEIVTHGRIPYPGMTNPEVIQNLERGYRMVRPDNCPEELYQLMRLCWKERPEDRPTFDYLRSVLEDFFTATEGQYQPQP
Sequence of Interleukin-1 receptor-associated kinase 3 (Q9Y616 whole entry, the tested form may be a part): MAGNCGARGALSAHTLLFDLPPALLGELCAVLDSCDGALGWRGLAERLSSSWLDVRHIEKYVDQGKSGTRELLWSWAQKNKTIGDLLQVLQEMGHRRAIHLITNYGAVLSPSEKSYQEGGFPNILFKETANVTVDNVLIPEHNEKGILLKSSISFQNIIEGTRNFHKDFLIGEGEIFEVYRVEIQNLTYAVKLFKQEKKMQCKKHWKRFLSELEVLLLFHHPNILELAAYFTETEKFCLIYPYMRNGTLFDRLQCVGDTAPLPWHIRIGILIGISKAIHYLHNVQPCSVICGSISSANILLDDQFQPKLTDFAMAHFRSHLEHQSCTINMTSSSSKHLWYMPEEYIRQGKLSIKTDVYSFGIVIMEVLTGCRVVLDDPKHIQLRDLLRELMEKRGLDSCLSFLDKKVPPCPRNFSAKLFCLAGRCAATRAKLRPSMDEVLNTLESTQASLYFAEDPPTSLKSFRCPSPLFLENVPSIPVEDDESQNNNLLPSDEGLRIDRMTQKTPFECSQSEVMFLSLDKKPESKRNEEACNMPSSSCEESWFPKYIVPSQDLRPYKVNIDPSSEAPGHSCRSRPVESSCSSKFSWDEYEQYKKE

Regarding `COc1ccc2nccc(Nc3cc(OC)c(OC)c(OC)c3)c2c1`, in assay [1], the Kd was 48 nM.
`COc1ccc2c(Nc3cc(OC)c(OC)c(OC)c3)ccnc2c1` showed a Kd in assay [1] of 35 nM. The compound also gave an inhibition in [2] of 20%.
`COc1cc(Nc2ccnc3ccc(I)cc23)cc(OC)c1OC` had a Kd in assay [1] of 8.6 nM.
In turn, `COc1cc(Nc2cc(C)nc3ccc(C(F)(F)F)cc23)cc(OC)c1OC` came in with a Kd in assay [1] greater than 30000 nM. Further, in [3], the IC50 was greater than 10 µM.
In assay [1], `COc1cc(Nc2ccnc3ccc(Cl)cc23)cc(OC)c1OC` showed a Kd of 6.3 nM.
Same read-out and setting: the value for `COc1cc(Nc2ccnc3ccc(C(C)(C)C)cc23)cc(OC)c1OC` was 34 nM.
On to `COc1cc2nccc(Nc3cc(OC)c(OC)c(OC)c3)c2cc1OC`, for which the Kd was determined as 130 nM on Ephrin type-B receptor 6; 1300 nM on Activin receptor type-1; 190 nM in [4]; 350 nM in [5]; 280 nM in assay [6]; 11 nM in [1]. The Kd at Ephrin type-A receptor 8 worked out at 560 nM; at Ephrin type-A receptor 1, 1300 nM; in [7] it was 170 nM; in assay [8], 92 nM; in [9], 430 nM.
As for `COc1cc(Nc2ccnc3ccc(C(F)(F)F)cc23)cc(OC)c1OC`, the Kd in [10] stood at 690 nM; on Ephrin type-B receptor 6 it was 1600 nM; in assay [11], 1400 nM; in assay [5], 1100 nM; on Ephrin type-A receptor 8, 1100 nM; on Ephrin type-A receptor 1 it was 3100 nM. The same compound had a Kd in assay [7] of 1900 nM.
In the case of `COc1cc(Nc2ccnc3ccc(C#N)cc23)cc(OC)c1OC`, the Kd in assay [1] is 4.9 nM.
The compound `COc1cc(Nc2ncnc3ccc(C(F)(F)F)cc23)cc(OC)c1OC` registered a Kd in assay [1] of 130 nM.
Still for that read-out and setting: the figure for `COc1cc(Nc2ccnc3ccccc23)cc(OC)c1OC` is 170 nM.
With `COc1cc(Nc2ccnc3ccc(Br)cc23)cc(OC)c1OC`, the dissociation constant (Kd) in assay [12] came to 260 nM; on Ephrin type-B receptor 6 it was 710 nM; at Activin receptor type-1 it was 1000 nM; in assay [7], 1200 nM.
As to `COc1cc(N(C)c2ccnc3ccc(C(F)(F)F)cc23)cc(OC)c1OC`, the figures for the Kd in assay [1] and in assay [13] were 9900 nM and 480 nM, respectively. This compound also came in with a 50% inhibitory concentration (IC50) in assay [3] greater than 10 µM.
